From the supplement of paper PMC10307832

Key:
Assay in all cases: relative viability (nuclei count vs DMSO), 5 days (fraction); higher = more cells survive
[1] = compound: Cn1nnc2c(C(N)=O)ncn2c1=O [Temozolomide] + O=C(CCCCCCC(=O)Nc1ccccc1)NO [Vorinostat] (partner 1 µM)
Summary of the method: (§1)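 For relative viability, nuclei counts in treated wells were divided by those in vehicle wells. Lung cancer cell lines had been pin-tool dosed in 1536-well plates the day after seeding and cultured for 5 days, then fixed and stained in one step (final 0.05% Triton X-100, 1% formaldehyde, 1 ug/ml Hoechst) and imaged at 4×. Doses were one drug alone or a fixed anchor-drug dose plus five library-drug doses (not always all listed) in √10 steps, and values are duplicate-plate medians.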

[2] = compound: Cn1nnc2c(C(N)=O)ncn2c1=O [Temozolomide] + CS(=O)(=O)CCNCc1ccc(-c2ccc3ncnc(Nc4ccc(OCc5cccc(F)c5)c(Cl)c4)c3c2)o1 [Lapatinib] (partner 2 µM)
Summary of the method: as §1

[3] = compound: C[C@@H](C(=O)N[C@@H](C1CCCCC1)C(=O)N2CCC[C@H]2C(=O)N[C@@H]3[C@@H](CC4=CC=CC=C34)OCC#CC#CCO[C@@H]5CC6=CC=CC=C6[C@@H]5NC(=O)[C@@H]7CCCN7C(=O)[C@H](C8CCCCC8)NC(=O)[C@H](C)NC)NC [AZD5582] + N=C(N)NC(=N)NCCc1ccccc1 [Phenformin] (partner 250 µM)
Summary of the method: as §1

[4] = compound: C[C@@H](C(=O)N[C@@H](C1CCCCC1)C(=O)N2CCC[C@H]2C(=O)N[C@@H]3[C@@H](CC4=CC=CC=C34)OCC#CC#CCO[C@@H]5CC6=CC=CC=C6[C@@H]5NC(=O)[C@@H]7CCCN7C(=O)[C@H](C8CCCCC8)NC(=O)[C@H](C)NC)NC [AZD5582] + O=C(CCCCCCC(=O)Nc1ccccc1)NO [Vorinostat] (partner 1 µM)
Summary of the method: as §1

Cell Line	relative viability ([1]; first compound 0.2 µM)	relative viability ([1]; first compound 0.6325 µM)	relative viability ([1]; first compound 2 µM)	relative viability ([1]; first compound 6.325 µM)	relative viability ([1]; first compound 20 µM)	relative viability ([2]; first compound 0.2 µM)	relative viability ([2]; first compound 0.6325 µM)	relative viability ([2]; first compound 2 µM)	relative viability ([2]; first compound 6.325 µM)	relative viability ([2]; first compound 20 µM)	relative viability ([3]; first compound 0.001581 µM)	relative viability ([3]; first compound 0.005 µM)	relative viability ([3]; first compound 0.01581 µM)	relative viability ([3]; first compound 0.05 µM)	relative viability ([4]; first compound 0.001581 µM)	relative viability ([4]; first compound 0.005 µM)	relative viability ([4]; first compound 0.01581 µM)	relative viability ([4]; first compound 0.05 µM)
HCC-15	0.79	0.847	0.791	0.695	0.806	0.91	0.87	0.931	0.829	0.892	0.391	0.437	0.31	0.402	0.762	0.883	0.752	0.967
NCI-H1437	0.748	0.748	0.915	0.831	0.92	0.8	0.817	0.822	0.875	0.975	0.251	0.279	0.254	0.365	0.711	0.751	0.838	0.743
